Columns and labels:
[1] = (§1) Inhibitory activity against Melanin-concentrating hormone receptor 1; parameters: species or system Homo sapiens
[2] = molecular target: T1, Melanin-concentrating hormone receptor 1 (Homo sapiens, UniProt Q99705); experiment: as §1; conditions: concentration not given here
[3] = molecular target: T1, Melanin-concentrating hormone receptor 1; experiment: Inhibitory activity against Melanin-concentrating hormone receptor 1 at 1 uM
[4] = molecular target: T2, 5-hydroxytryptamine receptor 2C (Homo sapiens, UniProt P28335); experiment: Inhibitory activity against human 5-HT2C receptor
T2 sequence (P28335 whole entry): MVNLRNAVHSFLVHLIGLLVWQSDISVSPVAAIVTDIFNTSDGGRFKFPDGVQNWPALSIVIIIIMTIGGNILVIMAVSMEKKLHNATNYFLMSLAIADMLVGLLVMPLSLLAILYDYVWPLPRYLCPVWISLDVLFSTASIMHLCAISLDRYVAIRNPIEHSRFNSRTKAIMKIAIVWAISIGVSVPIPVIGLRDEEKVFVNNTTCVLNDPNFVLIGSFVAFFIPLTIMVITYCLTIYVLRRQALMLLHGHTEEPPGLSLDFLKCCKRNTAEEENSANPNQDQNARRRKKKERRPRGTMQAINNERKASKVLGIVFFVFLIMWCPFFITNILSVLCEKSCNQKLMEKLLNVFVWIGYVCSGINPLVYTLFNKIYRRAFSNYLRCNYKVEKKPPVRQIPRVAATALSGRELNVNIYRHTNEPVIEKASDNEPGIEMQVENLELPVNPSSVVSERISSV

[5] = molecular target: T3, Alpha-1A adrenergic receptor (Homo sapiens) (UniProt P35348); experiment: Inhibitory activity against human adrenergic alpha-1A receptor at 10 uM
T3 sequence (whole entry): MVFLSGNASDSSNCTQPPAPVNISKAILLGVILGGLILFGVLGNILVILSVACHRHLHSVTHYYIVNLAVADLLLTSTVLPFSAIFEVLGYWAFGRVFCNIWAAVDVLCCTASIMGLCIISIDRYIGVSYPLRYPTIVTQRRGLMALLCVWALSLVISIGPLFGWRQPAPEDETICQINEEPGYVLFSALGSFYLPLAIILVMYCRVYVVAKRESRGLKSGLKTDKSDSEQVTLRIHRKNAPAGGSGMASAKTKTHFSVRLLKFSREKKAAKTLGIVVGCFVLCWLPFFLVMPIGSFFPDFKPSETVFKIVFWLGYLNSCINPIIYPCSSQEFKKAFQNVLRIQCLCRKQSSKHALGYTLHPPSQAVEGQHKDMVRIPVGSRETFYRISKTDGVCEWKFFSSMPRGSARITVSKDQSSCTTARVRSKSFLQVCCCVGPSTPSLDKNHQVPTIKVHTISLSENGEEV

[6] = molecular target: D(2) dopamine receptor (Homo sapiens) (UniProt P14416); experiment: Inhibitory activity against human D2 receptor at 10 uM
Chain of D(2) dopamine receptor (Homo sapiens) (P14416 whole entry): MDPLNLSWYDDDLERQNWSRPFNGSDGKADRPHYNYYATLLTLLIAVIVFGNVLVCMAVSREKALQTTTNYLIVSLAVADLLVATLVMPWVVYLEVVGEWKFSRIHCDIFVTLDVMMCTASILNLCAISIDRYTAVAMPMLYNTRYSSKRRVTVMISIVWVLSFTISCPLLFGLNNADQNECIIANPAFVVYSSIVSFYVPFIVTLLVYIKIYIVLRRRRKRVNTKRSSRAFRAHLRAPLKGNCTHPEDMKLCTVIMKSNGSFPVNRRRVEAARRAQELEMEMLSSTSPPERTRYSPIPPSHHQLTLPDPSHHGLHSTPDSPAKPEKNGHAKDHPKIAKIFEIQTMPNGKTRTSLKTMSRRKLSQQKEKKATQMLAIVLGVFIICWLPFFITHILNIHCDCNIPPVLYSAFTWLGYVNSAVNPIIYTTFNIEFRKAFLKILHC

[7] = molecular target: T4, 5-hydroxytryptamine receptor 2A (Homo sapiens, UniProt P28223); experiment: Inhibitory activity against human 5-HT2A receptor
T4 sequence (P28223 whole entry): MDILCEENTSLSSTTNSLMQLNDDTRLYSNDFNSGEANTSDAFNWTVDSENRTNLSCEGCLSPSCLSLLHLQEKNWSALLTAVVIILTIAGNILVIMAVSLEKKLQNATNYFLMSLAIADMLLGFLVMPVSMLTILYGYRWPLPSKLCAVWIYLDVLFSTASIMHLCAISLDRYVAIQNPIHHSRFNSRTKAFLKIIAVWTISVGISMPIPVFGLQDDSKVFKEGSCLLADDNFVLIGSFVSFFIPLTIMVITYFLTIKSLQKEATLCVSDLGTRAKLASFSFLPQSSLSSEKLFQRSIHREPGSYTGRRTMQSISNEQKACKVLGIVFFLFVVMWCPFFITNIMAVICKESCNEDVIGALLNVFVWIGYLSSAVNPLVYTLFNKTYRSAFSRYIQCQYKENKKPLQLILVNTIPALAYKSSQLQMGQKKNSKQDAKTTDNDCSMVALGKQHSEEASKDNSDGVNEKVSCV

[8] = molecular target: T5, 5-hydroxytryptamine receptor 2B (Homo sapiens, UniProt P41595); experiment: Inhibitory activity against human 5-HT2B receptor
T5 sequence (P41595 whole entry): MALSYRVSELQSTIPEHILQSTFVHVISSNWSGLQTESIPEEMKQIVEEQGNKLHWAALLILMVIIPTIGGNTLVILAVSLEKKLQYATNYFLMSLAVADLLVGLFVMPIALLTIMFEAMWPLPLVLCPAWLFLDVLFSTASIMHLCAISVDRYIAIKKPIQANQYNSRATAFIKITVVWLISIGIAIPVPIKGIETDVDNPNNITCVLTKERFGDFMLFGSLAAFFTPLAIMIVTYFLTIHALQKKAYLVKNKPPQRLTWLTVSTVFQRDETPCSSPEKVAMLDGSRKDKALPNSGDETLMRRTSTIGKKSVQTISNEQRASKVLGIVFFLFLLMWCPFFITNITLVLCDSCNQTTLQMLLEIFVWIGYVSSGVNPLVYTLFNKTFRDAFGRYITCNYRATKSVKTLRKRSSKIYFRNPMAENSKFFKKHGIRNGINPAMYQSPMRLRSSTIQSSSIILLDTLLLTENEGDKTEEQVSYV

[9] = molecular target: T6, 5-hydroxytryptamine receptor 2C (Homo sapiens) (UniProt P28335); experiment: Inhibitory activity against human 5-HT2C receptor at 1 uM concentration
T6 sequence (whole entry): T2 sequence (P28335 whole entry)

[10] = molecular target: T4, 5-hydroxytryptamine receptor 2A; experiment: Inhibitory activity against human 5-HT2A receptor at 1 uM concentration
[11] = molecular target: D(2) dopamine receptor (Homo sapiens) (UniProt P14416); experiment: Inhibitory activity against human D2 receptor at 1 uM concentration
[12] = molecular target: T3, Alpha-1A adrenergic receptor (Homo sapiens); experiment: Inhibitory activity against human adrenergic alpha-1A receptor at 1 uM concentration
Homo sapiens = organism: Homo sapiens; experiment: Selectivity ratio for MCH-1R versus 5-HT2B receptor
[13] = molecular target: T1, Melanin-concentrating hormone receptor 1; experiment: Tested for MCH-1 induced [Ca2+] release from CHO cells transfected with human MCH-1R; assay type: cell-based
[14] = molecular target: T5, 5-hydroxytryptamine receptor 2B; experiment: Inhibitory activity against human 5-HT2B receptor at 1 uM concentration
[15] = molecular target: D(2) dopamine receptor (Homo sapiens) (UniProt P14416); experiment: Inhibitory activity against human D2 receptor at 10 uM concentration
[16] = molecular target: T3, Alpha-1A adrenergic receptor (Homo sapiens); experiment: Inhibitory activity against human adrenergic alpha-1A receptor at 10 uM concentration

T1 sequence (Q99705 whole entry): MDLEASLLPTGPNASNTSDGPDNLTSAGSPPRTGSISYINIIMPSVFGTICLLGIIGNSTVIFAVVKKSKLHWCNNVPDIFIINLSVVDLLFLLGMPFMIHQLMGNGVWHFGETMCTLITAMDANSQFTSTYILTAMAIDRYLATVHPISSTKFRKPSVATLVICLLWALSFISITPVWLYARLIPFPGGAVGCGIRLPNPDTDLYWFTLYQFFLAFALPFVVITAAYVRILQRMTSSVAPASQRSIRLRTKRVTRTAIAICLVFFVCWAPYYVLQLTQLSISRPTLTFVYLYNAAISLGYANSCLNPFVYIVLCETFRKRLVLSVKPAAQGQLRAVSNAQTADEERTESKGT

In the case of `Cc1cc(N2CCN(C)CC2)nc2ccc(NC(=O)COc3ccc(OC(F)(F)F)cc3)cc12`, the IC50 [1] is reported as 0.036 µM.

Work on `Cc1cc(N2CCN(C)CC2)nc2ccc(NC(=O)COc3cccc(Cl)c3)cc12` yielded an inhibition [2] of 19%.

Compound `Cc1cc(N2CCN(C)CC2)nc2ccc(NC(=O)COc3ccc(C#N)cc3)cc12` has an IC50 [1] of 0.37 µM.

In the case of `Cc1cc(N(C)C)nc2ccc(NC(=O)COc3ccc(C(F)(F)F)cc3)cc12`, the IC50 [1] is reported as 0.174 µM.

For `Cc1ccc(OCC(=O)Nc2ccc3nc(N4CCN(C)CC4)cc(C)c3c2)cc1`, the IC50 [1] was 0.08 µM.

With `Cc1cc(NC2CCCC2)nc2ccc(NC(=O)COc3ccc(C(F)(F)F)cc3)cc12` the IC50 [1] was 0.038 µM.

`Cc1cc(N2CCN(C)CC2)nc2ccc(NC(=O)CSCc3ccc(Cl)cc3)cc12` gave an inhibition [3] of 38%.

Compound `COc1cccc(OCC(=O)Nc2ccc3nc(N4CCN(C)CC4)cc(C)c3c2)c1` has an inhibition [3] of 9%.

Work on `Cc1cc(N2CCN(C)CC2)nc2ccc(NC(=O)COCc3ccc(Cl)cc3)cc12` yielded an inhibition [3] of 19%.

With `Cc1cc(N2CCN(C)CC2)nc2ccc(NC(=O)COc3ccc(Cl)cc3)cc12` the IC50 [4] was 0.97 µM, the inhibition [5] was 84% and the IC50 [1] was 0.055 µM. It also gave an inhibition [6] of 35%, an IC50 [7] of 2.18 µM and an IC50 [8] of 0.349 µM.

`Cc1cc(NC(C)C)nc2ccc(NC(=O)COc3ccc(C(F)(F)F)cc3)cc12` showed an inhibition [9] of 18%, an inhibition [10] of 18% and an inhibition [11] of 2%. It also gave an inhibition [12] of 24%, an IC50 [1] of 0.011 µM and an IC50 [8] of 0.4 µM. The Ratio (Homo sapiens) was 36.

`COc1ccccc1OCC(=O)Nc1ccc2nc(N3CCN(C)CC3)cc(C)c2c1` gave an inhibition [2] of 0%.

For `Cc1cc(N2CCOCC2)nc2ccc(NC(=O)COc3ccc(C(F)(F)F)cc3)cc12`, the inhibition [9] was 27%, the inhibition [10] was 27% and the inhibition [11] was 43%. For the same compound, the inhibition [12] was 5%, the IC50 [13] was 0.124 µM and the IC50 [1] was 0.091 µM. The inhibition [14] was 19% and the Ratio (Homo sapiens) was > 11.

Work on `Cc1cc(N2CCCC2)nc2ccc(NC(=O)COc3ccc(C(F)(F)F)cc3)cc12` yielded an inhibition [9] of 7%, an inhibition [10] of 11% and an inhibition [11] of 7%. The inhibition [12] was 10%, the IC50 [13] was 0.01 µM and the IC50 [1] was 0.015 µM. For the same compound, the Ratio (Homo sapiens) was > 200.

In the case of `Cc1cc(N2CCN(C)CC2)nc2ccc(NC(=O)CCc3ccc(Cl)cc3)cc12`, the IC50 [1] is reported as 0.3 µM.

`Cc1cc(N2CCN(C)CC2)nc2ccc(NC(=O)COc3ccccc3)cc12` showed an inhibition [3] of 2%.

`Cc1cc(N(C)CCN(C)C)nc2ccc(NC(=O)COc3ccc(C(F)(F)F)cc3)cc12` gave an IC50 [1] of 0.022 µM.

`Cc1cc(N2CCN(C)CC2)nc2ccc(NC(=O)COc3ccccc3Cl)cc12` showed an IC50 [1] of 0.47 µM.

`COc1ccc(OCC(=O)Nc2ccc3nc(N4CCN(C)CC4)cc(C)c3c2)cc1` gave an IC50 [1] of 0.152 µM.

Compound `Cc1ccccc1OCC(=O)Nc1ccc2nc(N3CCN(C)CC3)cc(C)c2c1` has an IC50 [1] of 1.05 µM.

`Cc1cc(N2CCN(C)CC2)nc2ccc(NC(=O)COc3ccc(C(F)(F)F)cc3)cc12` gave an inhibition [9] of 39%, an inhibition [10] of 27% and an inhibition [15] of 41%. It also gave an inhibition [16] of 85%, an IC50 [13] of 0.063 µM and an IC50 [1] of 0.014 µM. It also gave an IC50 [8] of 0.442 µM and a Ratio (Homo sapiens) of 32.

For `Cc1cc(N(C)Cc2ccccc2)nc2ccc(NC(=O)COc3ccc(C(F)(F)F)cc3)cc12`, the inhibition [3] was 40%.

`Cc1cc(N2CCCCC2)nc2ccc(NC(=O)COc3ccc(C(F)(F)F)cc3)cc12` gave an IC50 [1] of 0.226 µM.

In the case of `Cc1cc(N2CCN(C)CC2)nc2ccc(NC(=O)COc3ccc(F)cc3)cc12`, the IC50 [1] is reported as 1.68 µM.

— ChEMBL document CHEMBL1137142, “Structure-activity relationships of a novel series of melanin-concentrating hormone (MCH) receptor antagonists” (Bioorg Med Chem Lett, 2004)
